Experimental data as given in patent publication US20250382273A1 (INSTITUT NATIONAL DE LA SANTE ET DE LA RECHERCHE MEDICALE, priority 2022, published 2025).
Like-named read-outs stand apart in the source and are kept apart here.

Experiments:
[1] = tested on: M. tuberculosis H37Rv_gfp; assay type: cell-based, Mycobacterium tuberculosis; conditions: in combination with delamanid 4 ng·mL−1, 5 days at 37° C.
[2] = tested on: M. tuberculosis H37Rv_gfp; assay type: cell-based, Mycobacterium tuberculosis
[3] = in combination with pretomanid 20 ng·mL−1, 5 days at 37° C., […], read-out: EC50 H37Rv_gfp
[4] = in combination with pretomanid, unit inferred, read-out: average EC50 H37Rv_gfp

Row | SMILES | EC50 [2, 3] [µM] | further results
1 | Cc1ccc2nc(NC(=O)[C@@H]3C4C=CC(C4)[C@@H]3C(=O)O)sc2c1 (mixture of isomers) [Example 1, 3-[(6-methyl-1,3-benzothiazol-2-yl)carbamoyl]bicyclo[2.2.1]hept-5-ene-2-carboxylic acid] | 1 to 5 | EC50 [1]: 0.31 µM
2 | Cc1ccc2nc(N3C(=O)[C@@H]4[C@H](C3=O)[C@@H]3C=C[C@H]4C3)sc2c1 [Example 2, (1R,2S,6R,7S)-4-(6-methyl-1,3-benzothiazol-2-yl)-4-azatricyclo[5.2.1.02,6]dec-8-ene-3,5-dione] | < 1 | EC50 [1]: 0.42 µM
3 | O=C(Nc1nc2ccc(Oc3ccccc3)cc2s1)[C@@H]1C2C=CC(C2)[C@@H]1C(=O)O (stereo partly drawn) [Example 18, [2-hydroxy-1,1-bis(hydroxymethyl)ethyl]ammonium: (1R,2S,3R,4S)-3-[(6-phenoxy-1,3-benzothiazol-2-yl)carbamoyl]bicyclo[2.2.1]hept-5-ene-2-carboxylate] | < 1 | EC50 [1]: 0.16 µM
4 | O=C(Nc1nc2ccc(Oc3cc(C(F)(F)F)ccn3)cc2s1)[C@@H]1C2C=CC(C2)[C@@H]1C(=O)O (stereo partly shown) [Example 27, 3-[[6-[[4-(trifluoromethyl)-2-pyridyl]oxy]-1,3-benzothiazol-2-yl]carbamoyl]bicyclo[2.2.1]hept-5-ene-2-carboxylic acid] | < 1 | EC50 [1]: 0.15 µM; EC50 [2, 4]: 0.11 µM
5 | O=C(Nc1nc2ccc(C#Cc3ccccc3)cc2s1)[C@@H]1C2C=CC(C2)[C@@H]1C(=O)O (stereo partly shown) [Example 77, 3-[[6-(2-phenylethynyl)-1,3-benzothiazol-2-yl]carbamoyl]bicyclo[2.2.1]hept-5-ene-2-carboxylic acid] | < 1 | 
6 | CC(C)(C)C#Cc1ccc2nc(NC(=O)[C@@H]3C4C=CC(C4)[C@@H]3C(=O)O)sc2c1 (stereo partly shown) [Example 78, 3-[[6-(3,3-dimethylbut-1-ynyl)-1,3-benzothiazol-2-yl]carbamoyl]bicyclo [2.2.1]hept-5-ene-2-carboxylic acid] | < 1 | EC50 [2, 4]: 0.13 µM
7 | O=C(Nc1nc2ccc(C#CC3CC3)cc2s1)[C@@H]1C2C=CC(C2)[C@@H]1C(=O)O (stereo partly shown) [Example 79, 3-[[6-(2-cyclopropylethynyl)-1,3-benzothiazol-2-yl]carbamoyl]bicyclo[2.2.1]hept-5-ene-2-carboxylic acid] | < 1 | 
8 | O=C(Nc1nc2ccc(-c3cncnc3)cc2s1)[C@@H]1C2C=CC(C2)[C@@H]1C(=O)O (stereo partly shown) [Example 80, 3-[(6-pyrimidin-5-yl-1,3-benzothiazol-2-yl)carbamoyl]bicyclo[2.2.1]hept-5-ene-2-carboxylic acid] | 10 to 20 | 
9 | O=C(Nc1nc2ccc(-c3ccc4ncccc4c3)cc2s1)[C@@H]1C2C=CC(C2)[C@@H]1C(=O)O (stereo partly shown) [Example 81, 3-[[6-(6-quinolyl)-1,3-benzothiazol-2-yl]carbamoyl]bicyclo[2.2.1]hept-5-ene-2-carboxylic acid] | 1 to 5 | 
10 | Cc1ccnc(Nc2ccc3nc(NC(=O)[C@@H]4C5C=CC(C5)[C@@H]4C(=O)O)sc3c2)c1 (stereo partly shown) [Example 84, 3-[[6-[(4-methyl-2-pyridyl)amino]-1,3-benzothiazol-2-yl]carbamoyl]bicyclo[2.2.1]hept-5-ene-2-carboxylic acid] | 1 to 5 | 
11 | O=C(Nc1nc2ccc(Nc3cc(F)ccn3)cc2s1)[C@@H]1C2C=CC(C2)[C@@H]1C(=O)O (stereo partly shown) [Example 85, 3-[[6-[(4-fluoro-2-pyridyl)amino]-1,3-benzothiazol-2-yl]carbamoyl]bicyclo[2.2.1]hept-5-ene-2-carboxylic acid] | < 1 | 
12 | O=C(Nc1nc2ccc(Nc3ccc(F)cn3)cc2s1)[C@@H]1C2C=CC(C2)[C@@H]1C(=O)O (stereo partly shown) [Example 86, 3-[[6-[(5-fluoro-2-pyridyl)amino]-1,3-benzothiazol-2-yl]carbamoyl]bicyclo[2.2.1]hept-5-ene-2-carboxylic acid] | < 1 | 
13 | O=C1[C@@H]2C3C=CC(C3)[C@@H]2C(=O)N1c1nc2ccc(Nc3ccc(F)cn3)cc2s1 [Example 87, 4-[6-[(5-fluoro-2-pyridyl)amino]-1,3-benzothiazol-2-yl]-4-azatricyclo[5.2.1.02,6]dec-8-ene-3,5-dione] | < 1 | 
14 | O=C(Nc1nc2ccc(Nc3cccc(F)n3)cc2s1)[C@@H]1C2C=CC(C2)[C@@H]1C(=O)O (stereo partly shown) [Example 88, 3-[[6-[(6-fluoro-2-pyridyl)amino]-1,3-benzothiazol-2-yl]carbamoyl]bicyclo[2.2.1]hept-5-ene-2-carboxylic acid] | < 1 | 
15 | O=C1[C@@H]2C3C=CC(C3)[C@@H]2C(=O)N1c1nc2ccc(Nc3cccc(F)n3)cc2s1 [Example 89, 4-[6-[(6-fluoro-2-pyridyl)amino]-1,3-benzothiazol-2-yl]-4-azatricyclo[5.2.1.02,6]dec-8-ene-3,5-dione] | 1 to 5 | 
16 | O=C1[C@@H]2C3C=CC(C3)[C@@H]2C(=O)N1c1nc2ccc(Nc3ccnc(C(F)(F)F)c3)cc2s1 [Example 90, 4-[6-[[2-(trifluoromethyl)-4-pyridyl]amino]-1,3-benzothiazol-2-yl]-4-azatricyclo[5.2.1.02,6]dec-8-ene-3,5-dione] | < 1 | 
17 | O=C(Nc1nc2ccc(Nc3cncc(C(F)(F)F)c3)cc2s1)[C@@H]1C2C=CC(C2)[C@@H]1C(=O)O (stereo partly shown) [Example 91, 3-[[6-[[5-(trifluoromethyl)-3-pyridyl]amino]-1,3-benzothiazol-2-yl]carbamoyl]bicyclo[2.2.1]hept-5-ene-2-carboxylic acid] | 1 to 5 | 
18 | COc1cc(Nc2ccc3nc(N4C(=O)[C@@H]5C6C=CC(C6)[C@@H]5C4=O)sc3c2)ccn1 [Example 92, 4-[6-[(2-methoxy-4-pyridyl)amino]-1,3-benzothiazol-2-yl]-4-azatricyclo[5.2.1.02,6]dec-8-ene-3,5-dione] | 1 to 5 | 
19 | O=C(Nc1nc2ccc(Nc3ccc(OC(F)(F)F)cn3)cc2s1)[C@@H]1C2C=CC(C2)[C@@H]1C(=O)O (stereo partly shown) [Example 93, 3-[[6-[[5-(trifluoromethoxy)-2-pyridyl]amino]-1,3-benzothiazol-2-yl]carbamoyl]bicyclo[2.2.1]hept-5-ene-2-carboxylic acid] | < 1 | 
20 | O=C1[C@@H]2C3C=CC(C3)[C@@H]2C(=O)N1c1nc2ccc(Nc3ccc(C(F)(F)F)cn3)cc2s1 [Example 95] | < 1 | 
21 | O=C(Nc1nc2ccc(Nc3ccc(C(F)(F)F)cn3)cc2s1)[C@@H]1C2C=CC(C2)[C@@H]1C(=O)O (stereo partly shown) [Example 96, 3-[[6-[[5-(trifluoromethyl)-2-pyridyl]amino]-1,3-benzothiazol-2-yl]carbamoyl]bicyclo[2.2.1]hept-5-ene-2-carboxylic acid] | 1 to 5 | 
22 | O=C1[C@@H]2C3C=CC(C3)[C@@H]2C(=O)N1c1nc2ccc(Nc3cccc(C(F)(F)F)n3)cc2s1 [Example 97, 4-[6-[[6-(trifluoromethyl)-2-pyridyl]amino]-1,3-benzothiazol-2-yl]-4-azatricyclo[5.2.1.02,6]dec-8-ene-3,5-dione] | < 1 | 
23 | O=C1[C@@H]2C3C=CC(C3)[C@@H]2C(=O)N1c1nc2ccc(Nc3ccnc(F)c3)cc2s1 [Example 98, 4-[6-[(2-fluoro-4-pyridyl)amino]-1,3-benzothiazol-2-yl]-4-azatricyclo[5.2.1.02,6]dec-8-ene-3,5-dione] |  | EC50 ([2]; read-out: EC50 H37Rv_gfp): 5 to 10 µM
24 | O=C(Nc1nc2ccc(Nc3ccnc(F)c3)cc2s1)[C@@H]1C2C=CC(C2)[C@@H]1C(=O)O (stereo partly shown) [Example 99, 3-[[6-[(2-fluoro-4-pyridyl)amino]-1,3-benzothiazol-2-yl]carbamoyl]bicyclo[2.2.1]hept-5-ene-2-carboxylic acid] | 5 to 10 | 
25 | O=C(Nc1nc2ccc(-c3ccc(N4CCCCC4)cc3)cc2s1)[C@@H]1C2C=CC(C2)[C@@H]1C(=O)O (stereo partly shown) [Example 100] | < 1 | 
